Test results from ChEMBL document CHEMBL1201862, “PubChem BioAssay data set” (2004).
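Test compounds were applied to cells in 96-well plates for 48 hours at 5 doses. GI50 = concentration required for 50% inhibition of growth.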 The source made the active and inactive calls. Rule as the data show it: active = GI50 up to about 1.1 µM and inactive = higher.

Tests used:
Experiment in all cases: NCI anticancer screen, dose series, 48 h
T47D = tested on: T47D
OVCAR-3 = tested on: OVCAR-3
Malme-3M = tested on: Malme-3M
SF-539 = tested on: SF-539
SK-MEL-5 = tested on: SK-MEL-5
HOP-62 = tested on: HOP-62
NCI-H522 = tested on: NCI-H522
HT-29 = tested on: HT-29
SN12C = tested on: SN12C
NCI/ADR-RES = tested on: NCI/ADR-RES
MDA-MB-231 = tested on: MDA-MB-231
SK-MEL-28 = tested on: SK-MEL-28
U-251 = tested on: U-251
MDA-N = tested on: MDA-N
HCC 2998 = tested on: HCC 2998
NCI-H460 = tested on: NCI-H460
RPMI-8226 = tested on: RPMI-8226
A549 = tested on: A549
HL-60 = tested on: HL-60
DU-145 = tested on: DU-145
K562 = tested on: K562
M14 = tested on: M14
PC-3 = tested on: PC-3
SNB-19 = tested on: SNB-19
UO-31 = tested on: UO-31
UACC-257 = tested on: UACC-257
TK-10 = tested on: TK-10
OVCAR-5 = tested on: OVCAR-5
NCI-H23 = tested on: NCI-H23
SR = tested on: SR
BT-549 = tested on: BT-549
HCT-15 = tested on: HCT-15
NCI-H226 = tested on: NCI-H226
ACHN = tested on: ACHN
IGROV-1 = tested on: IGROV-1
HOP-92 = tested on: HOP-92
A498 = tested on: A498
EKVX = tested on: EKVX
SF-268 = tested on: SF-268
UACC-62 = tested on: UACC-62
OVCAR-4 = tested on: OVCAR-4
Hs-578T = tested on: Hs-578T
CCRF-CEM = tested on: CCRF-CEM
OVCAR-8 = tested on: OVCAR-8
CAKI-1 = tested on: CAKI-1
MOLT-4 = tested on: MOLT-4
SW-620 = tested on: SW-620
RXF 393 = tested on: RXF 393
MCF7 = tested on: MCF7
LOX IMVI = tested on: LOX IMVI
HCT-116 = tested on: HCT-116
SK-OV-3 = tested on: SK-OV-3
MDA-MB-435 = tested on: MDA-MB-435
SNB-75 = tested on: SNB-75
786-0 = tested on: 786-0
COLO 205 = tested on: COLO 205
SK-MEL-2 = tested on: SK-MEL-2
KM12 = tested on: KM12
SF-295 = tested on: SF-295

## Cc1ccc(C2=Nc3c(N)nc(N)nc3NC(c3ccccc3)C2)cc1 (centres undefined)
T47D
  GI50: 12.6 µM (inactive)
OVCAR-3
  GI50: 11.8 µM (inactive)
Malme-3M
  GI50: 10.9 µM (inactive)
SF-539
  GI50: 12.1 µM (inactive)
SK-MEL-5
  GI50: 10 µM (inactive)
HOP-62
  GI50: 12.5 µM (inactive)
NCI-H522
  GI50: 3.65 µM (inactive)
HT-29
  GI50: 3.99 µM (inactive)
SN12C
  GI50: 11.4 µM (inactive)
NCI/ADR-RES
  GI50: 4.34 µM (inactive)
MDA-MB-231
  GI50: 7.4 µM (inactive)
SK-MEL-28
  GI50: 12 µM (inactive)
U-251
  GI50: 12.1 µM (inactive)
MDA-N
  GI50: 2.22 µM (inactive)
HCC 2998
  GI50: 7.41 µM (inactive)
NCI-H460
  GI50: 12.4 µM (inactive)
RPMI-8226
  GI50: 7.01 µM (inactive)
A549
  GI50: 10.9 µM (inactive)
HL-60
  GI50: 3.08 µM (inactive)
DU-145
  GI50: 14.8 µM (inactive)
K562
  GI50: 4.06 µM (inactive)
M14
  GI50: 8.26 µM (inactive)
PC-3
  GI50: 10.5 µM (inactive)
SNB-19
  GI50: 13.4 µM (inactive)
UO-31
  GI50: 12.6 µM (inactive)
UACC-257
  GI50: 12.2 µM (inactive)
TK-10
  GI50: 14.4 µM (inactive)
OVCAR-5
  GI50: 16.4 µM (inactive)
NCI-H23
  GI50: 11.3 µM (inactive)
SR
  GI50: 6.92 µM (inactive)
BT-549
  GI50: 9.46 µM (inactive)
HCT-15
  GI50: 4.92 µM
NCI-H226
  GI50: 14.3 µM (inactive)
ACHN
  GI50: 15.1 µM (inactive)
IGROV-1
  GI50: 7.16 µM (inactive)
HOP-92
  GI50: 10.3 µM (inactive)
A498
  GI50: 11.4 µM (inactive)
EKVX
  GI50: 13.5 µM (inactive)
SF-268
  GI50: 14.9 µM (inactive)
UACC-62
  GI50: 10.3 µM (inactive)
OVCAR-4
  GI50: 13.9 µM (inactive)
Hs-578T
  GI50: 13 µM (inactive)
CCRF-CEM
  GI50: 7.41 µM (inactive)
OVCAR-8
  GI50: 14 µM (inactive)
CAKI-1
  GI50: 10.5 µM (inactive)
MOLT-4
  GI50: 5.14 µM (inactive)
SW-620
  GI50: 4.16 µM (inactive)
RXF 393
  GI50: 9.4 µM (inactive)
MCF7
  GI50: 7.69 µM (inactive)
LOX IMVI
  GI50: 11 µM (inactive)
HCT-116
  GI50: 5.53 µM (inactive)
SK-OV-3
  GI50: 13.9 µM (inactive)
MDA-MB-435
  GI50: 2.24 µM (inactive)
SNB-75
  GI50: 15.2 µM (inactive)
786-0
  GI50: 12 µM (inactive)

## Clc1ccc(NCc2nnc(COc3ccc(OCc4nnc(CNc5ccc(Cl)cc5)o4)c(Cl)c3)o2)cc1
T47D
  GI50: > 100 µM (inactive)
OVCAR-3
  GI50: 29.7 µM (inactive)
Malme-3M
  GI50: 51.1 µM (inactive)
SK-MEL-5
  GI50: 5.7 µM (inactive)
HOP-62
  GI50: > 100 µM (inactive)
NCI-H522
  GI50: 10.6 µM (inactive)
HT-29
  GI50: 27.2 µM (inactive)
COLO 205
  GI50: 10.9 µM (inactive)
SN12C
  GI50: 43.5 µM (inactive)
NCI/ADR-RES
  GI50: 5.68 µM (inactive)
MDA-MB-231
  GI50: 15.7 µM (inactive)
SK-MEL-28
  GI50: 75.3 µM (inactive)
U-251
  GI50: 39.3 µM (inactive)
MDA-N
  GI50: 20.4 µM (inactive)
HCC 2998
  GI50: > 100 µM (inactive)
NCI-H460
  GI50: 42.6 µM (inactive)
RPMI-8226
  GI50: 9.51 µM (inactive)
A549
  GI50: 49 µM (inactive)
HL-60
  GI50: 3.52 µM (inactive)
DU-145
  GI50: > 100 µM (inactive)
M14
  GI50: > 100 µM (inactive)
PC-3
  GI50: 24 µM (inactive)
SNB-19
  GI50: > 100 µM (inactive)
UO-31
  GI50: 26.4 µM (inactive)
UACC-257
  GI50: 43.1 µM (inactive)
TK-10
  GI50: 56.9 µM (inactive)
OVCAR-5
  GI50: > 100 µM (inactive)
SK-MEL-2
  GI50: 14 µM (inactive)
NCI-H23
  GI50: 44 µM (inactive)
SR
  GI50: 0.303 µM (active)
BT-549
  GI50: 22.3 µM (inactive)
HCT-15
  GI50: 43.6 µM
NCI-H226
  GI50: 23.3 µM (inactive)
ACHN
  GI50: 38.1 µM (inactive)
IGROV-1
  GI50: 17.2 µM (inactive)
HOP-92
  GI50: 13.3 µM (inactive)
A498
  GI50: 28.4 µM (inactive)
EKVX
  GI50: 22.8 µM (inactive)
SF-268
  GI50: 33.7 µM (inactive)
UACC-62
  GI50: 4.66 µM (inactive)
Hs-578T
  GI50: 28.1 µM (inactive)
CCRF-CEM
  GI50: 11.2 µM (inactive)
OVCAR-8
  GI50: 62.7 µM (inactive)
KM12
  GI50: 26.9 µM (inactive)
CAKI-1
  GI50: 28.7 µM (inactive)
SW-620
  GI50: 38.2 µM (inactive)
RXF 393
  GI50: 47.3 µM (inactive)
MCF7
  GI50: 17.5 µM (inactive)
LOX IMVI
  GI50: 20.3 µM (inactive)
HCT-116
  GI50: > 100 µM (inactive)
SF-295
  GI50: 20.7 µM (inactive)
MDA-MB-435
  GI50: 18.5 µM (inactive)
786-0
  GI50: > 100 µM (inactive)

## COC(=O)/C(C#N)=C(/NCc1ccccc1)Nc1ccccc1
T47D
  GI50: 79.3 µM (inactive)
OVCAR-3
  GI50: 72.3 µM (inactive)
Malme-3M
  GI50: > 100 µM (inactive)
SF-539
  GI50: > 100 µM (inactive)
SK-MEL-5
  GI50: 64 µM (inactive)
HOP-62
  GI50: > 100 µM (inactive)
NCI-H522
  GI50: 55.7 µM (inactive)
HT-29
  GI50: 87.7 µM (inactive)
COLO 205
  GI50: 73.1 µM (inactive)
SN12C
  GI50: > 100 µM (inactive)
NCI/ADR-RES
  GI50: 51.1 µM (inactive)
MDA-MB-231
  GI50: 69.7 µM (inactive)
SK-MEL-28
  GI50: > 100 µM (inactive)
U-251
  GI50: > 100 µM (inactive)
MDA-N
  GI50: 46.9 µM (inactive)
HCC 2998
  GI50: > 100 µM (inactive)
NCI-H460
  GI50: 77.4 µM (inactive)
RPMI-8226
  GI50: 48.9 µM (inactive)
A549
  GI50: 45.1 µM (inactive)
HL-60
  GI50: 27.8 µM (inactive)
DU-145
  GI50: > 100 µM (inactive)
K562
  GI50: 46.1 µM (inactive)
M14
  GI50: 42.4 µM (inactive)
PC-3
  GI50: 46 µM (inactive)
SNB-19
  GI50: > 100 µM (inactive)
UO-31
  GI50: 37.6 µM (inactive)
UACC-257
  GI50: 82.8 µM (inactive)
TK-10
  GI50: > 100 µM (inactive)
OVCAR-5
  GI50: > 100 µM (inactive)
SK-MEL-2
  GI50: > 100 µM (inactive)
NCI-H23
  GI50: > 100 µM (inactive)
SR
  GI50: 53.8 µM (inactive)
BT-549
  GI50: > 100 µM (inactive)
HCT-15
  GI50: 83.2 µM
NCI-H226
  GI50: > 100 µM (inactive)
ACHN
  GI50: > 100 µM (inactive)
IGROV-1
  GI50: > 100 µM (inactive)
HOP-92
  GI50: 81.7 µM (inactive)
A498
  GI50: > 100 µM (inactive)
EKVX
  GI50: 50.9 µM (inactive)
SF-268
  GI50: > 100 µM (inactive)
OVCAR-4
  GI50: 91 µM (inactive)
Hs-578T
  GI50: 68.5 µM (inactive)
OVCAR-8
  GI50: > 100 µM (inactive)
CAKI-1
  GI50: > 100 µM (inactive)
MOLT-4
  GI50: 30.1 µM (inactive)
SW-620
  GI50: > 100 µM (inactive)
RXF 393
  GI50: > 100 µM (inactive)
MCF7
  GI50: > 100 µM (inactive)
LOX IMVI
  GI50: 61.2 µM (inactive)
HCT-116
  GI50: 63 µM (inactive)
SK-OV-3
  GI50: > 100 µM (inactive)
SF-295
  GI50: 46.1 µM (inactive)
MDA-MB-435
  GI50: > 100 µM (inactive)
SNB-75
  GI50: 37.3 µM (inactive)
786-0
  GI50: 92.5 µM (inactive)
